Reference: patent US20110130386A1, “DNA-PK INHIBITORS” (priority 2008, published 2011)
pIC50: −log10 of the molar value.

Target: Mammalian DNA-PK (Homo sapiens, UniProt P78527)
Experiment: DNA-PK inhibition assay (ELISA of p53 Ser15 phosphorylation of GST-p53N66)
Format: biochemical, Mammalian (isolated from HeLa cell nuclear extract)
Conditions: DNA-PK from HeLa nuclear extract; mean value; read-out: mean IC50
Protocol: In order to assess the inhibitory action of the compounds against DNA-PK in vitro, the following assay was used to determine IC50 values.
To the assay mix, varying concentrations of inhibitor (in DMSO at a final concentration of 1%) were added. After 10 minutes of incubation, ATP was added to give a final concentration of […] along with a 30 mer double stranded DNA oligonucleotide (final concentraion of 0.5 ng/ml) to initiate the reaction. After 1 hour with shaking, 150 μl of phosphate buffered saline (PBS) was added to the reaction and 5 μl then transferred to a 96 well opaque white plate containing 45 μl of PBS per well where the GSTp53N66 substrate was allowed to bind to the wells for 1 hour. To detect the phosphorylation event on the serine 15 residue of p53 elicited by DNA-PK a p53 phosphoserine-15 antibody (Cell Signaling Technology) was used in a basic ELISA procedure. An anti-rabbit HRP conjugated secondary antibody (Pierce) was then employed in the ELISA before the addition of chemiluminescence reagent. (NEN Renaissance) to detect the signal as measured by chemiluminescent counting via a TopCount NXT (Packard).
The enzyme activity for each compound is then calculated using the following equation: […]
The results are discussed below as IC50 values (the concentration at which 50% of the enzyme activity is inhibited). These are determined over a range of different concentrations, normally from 10 μM down to 0.001 μM. Such IC50 values are used as comparative values to identify increased compound potencies.

pIC50 | SMILES
6.62 | CN(CC(=O)O)Cc1ccc(-c2cccc3c(=O)cc(N4CCOCC4)oc23)c2sc3ccccc3c12 [4ac]
6.60 | O=C(C1CC1)N1CCN(Cc2ccc(-c3cccc4c(=O)cc(N5CCOCC5)oc34)c3sc4ccccc4c23)CC1 [4ag]
6.99 | O=c1cc(N2CCOCC2)oc2c(-c3ccc(CN4CCOCC4)c4c3sc3ccccc34)cccc12 [4ai]
6.04 | C[C@@H]1COCCN1Cc1ccc(-c2cccc3c(=O)cc(N4CCOCC4)oc23)c2sc3ccccc3c12 [4ak]
7.14 | O=c1cc(N2CCOCC2)oc2c(-c3ccc(CN4CCOC(CO)C4)c4c3sc3ccccc34)cccc12 (stereo not shown) [4al]
6.38 | COC1CCN(Cc2ccc(-c3cccc4c(=O)cc(N5CCOCC5)oc34)c3sc4ccccc4c23)CC1 [4am]
5.82 | CC1CC(C)CN(Cc2ccc(-c3cccc4c(=O)cc(N5CCOCC5)oc34)c3sc4ccccc4c23)C1 (stereo not shown) [4an]
5.27 | O=c1cc(N2CCOCC2)oc2c(-c3ccc(CN4CCC(C(F)(F)F)CC4)c4c3sc3ccccc34)cccc12 [4ao]
6.91 | CN(C)CC(C)(C)CNCc1ccc(-c2cccc3c(=O)cc(N4CCOCC4)oc23)c2sc3ccccc3c12 [4ay]
5.69 | O=c1cc(N2CCOCC2)oc2c(-c3ccc(CN4CCCC(F)(F)C4)c4c3sc3ccccc34)cccc12 [4az]
7.76 | O=c1cc(N2CCOCC2)oc2c(-c3ccc(CNCCCN4CCCC4)c4c3sc3ccccc34)cccc12 [4ba]
6.11 | CC(NCc1ccc(-c2cccc3c(=O)cc(N4CCOCC4)oc23)c2sc3ccccc3c12)c1nccs1 (stereo not shown) [4bb]
7.98 | CN1CCCCC1CNCc1ccc(-c2cccc3c(=O)cc(N4CCOCC4)oc23)c2sc3ccccc3c12 (stereo not shown) [4bc]

More lines, now with the values behind:

SMILES | pIC50
O=c1cc(N2CCOCC2)oc2c(-c3ccc(CNCC4CCCO4)c4c3sc3ccccc34)cccc12 (stereo not shown) [4a] | 7.51
CC(C)N1CCN(Cc2ccc(-c3cccc4c(=O)cc(N5CCOCC5)oc34)c3sc4ccccc4c23)CC1 [4aa] | 8.76
O=c1cc(N2CCOCC2)oc2c(-c3ccc(CN4CCN(CCO)CC4)c4c3sc3ccccc34)cccc12 [4ab] | 8.86
O=c1cc(N2CCOCC2)oc2c(-c3ccc(CN4CCCN(CCO)CC4)c4c3sc3ccccc34)cccc12 [4ad] | 8.41
CN(C)C1CCN(Cc2ccc(-c3cccc4c(=O)cc(N5CCOCC5)oc34)c3sc4ccccc4c23)CC1 [4ae] | 6.75
COC1CCCN(Cc2ccc(-c3cccc4c(=O)cc(N5CCOCC5)oc34)c3sc4ccccc4c23)C1 (stereo not shown) [4af] | 6.63
CN(C)C1CCN(Cc2ccc(-c3cccc4c(=O)cc(N5CCOCC5)oc34)c3sc4ccccc4c23)C1 (stereo not shown) [4ah] | 8.92
C[C@H]1COCCN1Cc1ccc(-c2cccc3c(=O)cc(N4CCOCC4)oc23)c2sc3ccccc3c12 [4aj] | 6.39
O=c1cc(N2CCOCC2)oc2c(-c3ccc(CN4CCCC(C(F)(F)F)C4)c4c3sc3ccccc34)cccc12 (stereo not shown) [4ap] | 5.67
CCN1CCN(Cc2ccc(-c3cccc4c(=O)cc(N5CCOCC5)oc34)c3sc4ccccc4c23)CC1 [4aq] | 8.25
N#CCNCc1ccc(-c2cccc3c(=O)cc(N4CCOCC4)oc23)c2sc3ccccc3c12 [4ar] | 7.53
O=c1cc(N2CCOCC2)oc2c(-c3ccc(CN4CCCO4)c4c3sc3ccccc34)cccc12 [4as] | 7.16
COCC1CCCN1Cc1ccc(-c2cccc3c(=O)cc(N4CCOCC4)oc23)c2sc3ccccc3c12 (stereo not shown) [4at] | 6.05
CN(C)C1CCCN(Cc2ccc(-c3cccc4c(=O)cc(N5CCOCC5)oc34)c3sc4ccccc4c23)C1 (stereo not shown) [4au] | 7.70
CN1CCCC1CCNCc1ccc(-c2cccc3c(=O)cc(N4CCOCC4)oc23)c2sc3ccccc3c12 (stereo not shown) [4av] | 7.31
O=c1cc(N2CCOCC2)oc2c(-c3ccc(CNCCc4ccccn4)c4c3sc3ccccc34)cccc12 [4aw] | 7.16
O=c1cc(N2CCOCC2)oc2c(-c3ccc(CNCCCn4ccnc4)c4c3sc3ccccc34)cccc12 [4ax] | 7.58
O=c1cc(N2CCOCC2)oc2c(-c3ccc(CNCc4ccccc4)c4c3sc3ccccc34)cccc12 [4b] | 6.61
